For assay [1], the target named is T1, furin (endogenous protease) in U20S cells (Homo sapiens, UniProt P09958).
T1 construct: the endogenous protease cleaves GFP; endogenous in cells; host or cells: U2OS cells transduced with a BacMam reporter
Nature of the assay: Furin cell-based assay (image-based, Golgi-targeted GFP with BMP10 furin/PCSK cleavage site).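 Further: Read-out is mean GFP fluorescence of Golgi puncta per cell by high-content imaging, retained when furin inhibited, over an eleven-point 0.00017–10 µM series, four-parameter fit.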 Conditions: 24-hour incubation, read-out: furin golgi cell pXC50 (converted).

Assay [2] deals with hydroxyproline (a specific marker for collagen) in mouse lung. Nature of the assay: Bleomycin induced lung fibrosis model: hydroxyproline assay. In kind it is in vivo. Conditions: relative to levels induced by Bleomycin in vehicle treated animals, *p < 0.05. The method, then:
(§1) Preclinical pulmonary fibrosis can be induced by single instillation of Bleomycin to the mouse lung. A 15-day Bleomycin protocol was developed to evaluate compounds of the invention in vivo for their ability to inhibit TGFβ secretion and collagen deposition in the mouse lung. On the day before Bleomycin instillation, compounds were administrated to mice based on the appropriate route and frequency. On the study initiation day, under Ketamine (80 mg/kg) and Xylazine (10 mg/kg) anesthesia, all the animals were cannulated oro-tracheally and 50 μL of normal saline (Sham control) or 0.03 U Bleomycin in 50 μL saline (all groups except sham control group) was delivered into the trachea. Compounds were dosed daily until the end of study on Day 15. On termination day, animals were euthanized using CO2 inhalation. The right lung was collected, washed in normal saline, weighed, flash frozen in liquid nitrogen and stored at −80° C. for hydroxyproline (a specific marker for collagen) and TGFβ assays.
(§2) Flash frozen whole right lung tissues were homogenized in 500 μL of RIPA buffer containing PMSF and protease inhibitor cocktail using zirconium oxide bead based homogenizer (Bullet blender Gold, NextAdvance, Germany). Briefly, tissues were spun in the homogenizer at 4° C. for three cycles of 10 minutes each at 1000 g. A complete uniform tissue mixture was obtained using this procedure. The homogenate volume was made up to 1.5 mL by adding 1 mL of RIPA buffer containing PMSF and protease inhibitor cocktail to 500 μL of homogenate. The homogenate was stored as aliquots of 100-500 μL each at −80° C.
Acid hydrolysis: 500 μL of the homogenized lung parenchyma was transferred to glass vials, and an equal volume of 12N HCl was added (final concentration of HCl: 6N). The vials were purged with nitrogen gas, sealed and incubated overnight (16 h) under anoxic conditions at 110° C.
Post incubation procedures: 35 μL of the sample from each tube or standard (prepared by serial dilution of hydroxyproline stock solution) was added onto a 96 well plate and the assay was performed as per the kit protocol (Quickzyme Biosciences: Cat #: QZBHYPR05). After the final color development, absorbance was measured by colorimetric analysis at 570 nm (using Thermoscan spectrum (Plate Reader) and results were recorded. Standard curve (linear graph) was generated by using hydroxyproline standards provided in the Quickzyme kit.

The test system of a further assay is TGFβ in mouse lung. The assay can be described thus: Bleomycin induced lung fibrosis model: TGFβ assay. To be noted: relative to levels induced by Bleomycin in vehicle treated animals, *p < 0.05. The format is in vivo. As to the method:
as §1, §2
Lung tissue homogenates (500 μL) were spun at 13,000 rpm for 20 minutes at 4° C. and supernatants were collected for TGFβ estimation. The assay was performed according to the manufacturer's manual (R&D systems: Cat #SMB100B). Briefly, the lung homogenates were activated by acid activation followed by neutralization to convert latent TGFβ to active TGFβ and the total TGFβ levels in supernatants were measured. Total protein levels in the lung supernatant were also determined.

Assay [3] deals with T2, Furin (108-574-Tev-Flag-His) enzyme (Homo sapiens, UniProt P09958).
T2 construct: Furin (108-574-Tev-Flag-His) enzyme was expressed and purified from CHO cells; TEV cleavage site (C); FLAG (C); His (C); made in house; host or cells: CHO cells
The assay can be described thus: Furin enzyme assay. The format is biochemical. An outline of the steps: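 CHO-expressed, purified furin construct at 40 pM in 100 mM HEPES pH7.5, 1 mM CaCl2, 0.005% Triton X-100. Eleven-point 1:3 series, 0.00017–10 μM final, incubated 2 h at room temperature and read on Envision. pXC50 from four-parameter fit.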

The test system of assay [4] is epithelial sodium channel (ENaC). The assay can be described thus: Transepithelial Electrical Resistance (TEER) assay, primary CF delF508 or non-CF HBE cells (FIG. 6-9). The format is cell-based, human. As to the method: (§3) Primary cultures of CF delF508 or non-CF HBE cells are seeded onto permeable filter supports and grown for 12-14 days for a significant RTE to be measured for TEER assays.
(§4) When the ENaC is active under basal conditions (at least in part due to protease cleavage inside the cell or at the apical membrane), there is a finite RTE that is affected by the Na+ current flowing through ENaC heterotrimers (αβγ or δβγ).

For assay [5] the test system is unchanged. The assay can be described thus: Transepithelial fluid transport assay, CF delF508 HBE cells. In kind it is cell-based, human. As to the method: Primary cultures of CF delF508 or non-CF HBE cells are seeded onto permeable filter supports and grown for 7 days for a significant RTE to be measured. Then, apical media is removed to initiate air-fluid interface (AFI) culture. When the cell monolayers are tight to fluid leak from basolateral to apical side of the cell monolayer, they are ready for fluid transport (fluid absorption) measurements.
Two methods are being used to challenge cell monolayers in AFI culture where there is no media in the apical side:
(1) A chronic overnight treatment was performed by adding the protease inhibitors (ENaC inhibitors) into the basolateral media. Then, […] of cell culture media is added to the apical side of each monolayer and fluid absorption measured (by the loss of volume in mls).
(2) An acute treatment was performed when the protease inhibitors (ENaC inhibitors) are added in the apical media in that […] volume (or media only or DMSO equivalents as controls).
In each case, fluid absorption is occurring against a 5× hydrostatic pressure gradient (i.e., there are 500 ml on the basolateral side and […] on the apical side).
When the ENaC is active under basal conditions (at least in part due to protease cleavage inside the cell or at the apical membrane), the absorptive Na+ current flowing through ENaC heterotrimers (αβγ or δβγ) creates an osmotic driving force for fluid absorption.

Assay [6] shares this test system. Nature of the assay: TEER assay, chronic or acute treatment, Non-CF Polarized Human Lobar Bronchial Epithelial Cells. The format is cell-based. More on the design: RTE Before Amil / RTE After Amil: unit not given here. Conditions: for Delta RTE / RTE After Amil / RTE Before Amil: chronic treatment (overnight). As to the method: as §3, §4
Where [7] appears, read: 10 mg/kg, Intra-peritoneal, Once daily.
The mark [8] stands for this setting: 10 mg/kg, Intra-peritoneal, Twice daily.

The structures appear in SMILES notation. Counter-ions that a name gives are not always drawn.

T2 sequence (P09958 108-574): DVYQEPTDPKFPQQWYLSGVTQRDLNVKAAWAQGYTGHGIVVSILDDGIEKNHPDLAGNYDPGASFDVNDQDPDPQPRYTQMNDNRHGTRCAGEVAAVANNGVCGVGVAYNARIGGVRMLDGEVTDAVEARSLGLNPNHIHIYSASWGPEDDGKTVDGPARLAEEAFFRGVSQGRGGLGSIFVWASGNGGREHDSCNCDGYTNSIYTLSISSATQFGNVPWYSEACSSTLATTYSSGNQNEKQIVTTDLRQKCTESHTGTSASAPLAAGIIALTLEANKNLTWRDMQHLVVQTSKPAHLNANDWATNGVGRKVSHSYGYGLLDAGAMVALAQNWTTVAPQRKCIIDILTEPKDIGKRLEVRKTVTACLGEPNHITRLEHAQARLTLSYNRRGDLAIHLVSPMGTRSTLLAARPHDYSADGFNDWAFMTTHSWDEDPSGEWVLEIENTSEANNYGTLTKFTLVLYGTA
T1 sequence (P09958 108-794): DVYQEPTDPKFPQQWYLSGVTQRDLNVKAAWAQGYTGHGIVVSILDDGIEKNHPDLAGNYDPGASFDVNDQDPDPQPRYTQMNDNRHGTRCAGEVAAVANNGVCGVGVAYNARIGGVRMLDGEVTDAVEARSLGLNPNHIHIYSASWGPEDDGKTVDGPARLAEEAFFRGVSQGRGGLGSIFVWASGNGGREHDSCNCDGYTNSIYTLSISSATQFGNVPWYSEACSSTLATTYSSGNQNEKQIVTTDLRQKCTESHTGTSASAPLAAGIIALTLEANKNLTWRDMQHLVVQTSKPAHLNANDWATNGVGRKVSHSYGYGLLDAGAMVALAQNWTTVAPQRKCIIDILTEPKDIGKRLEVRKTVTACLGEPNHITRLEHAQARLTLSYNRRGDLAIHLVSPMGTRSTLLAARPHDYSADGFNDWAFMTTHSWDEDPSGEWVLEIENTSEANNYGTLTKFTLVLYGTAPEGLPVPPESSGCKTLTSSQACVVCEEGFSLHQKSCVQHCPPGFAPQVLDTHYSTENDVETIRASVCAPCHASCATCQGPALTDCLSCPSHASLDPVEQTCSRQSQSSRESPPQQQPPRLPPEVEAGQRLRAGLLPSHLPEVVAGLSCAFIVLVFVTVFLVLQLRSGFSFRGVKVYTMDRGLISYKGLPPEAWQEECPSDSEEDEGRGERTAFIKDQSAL

With `CN1CCN(c2cnc(Oc3cc(CN4CCC(CC(=O)O)CC4)cc(-c4cc(Cl)cc(Cl)c4)n3)cn2)CC1` [Example 339, 2-(1-((2-(3,5-Dichlorophenyl)-6-((5-(4-methylpiperazin-1-yl)pyrazin-2-yl)oxy)pyridin-4-yl)methyl)piperidin-4-yl)acetic acid], the EC50 in assay [1] was 50.1 nM. The “% inhibition of hydroxyproline in lung” value in assay [2] (10 mg/kg, Oral, Once daily) was determined as 4%. Also, the “% inhibition of total TGFβ in lung” value in the assay with TGFβ in mouse lung (10 mg/kg, Oral, Once daily) is listed as 22%. Moreover, in assay [3], the “furin enzyme pIC50” value came to 8.7.
Turning to `CN(C)C(=O)COC(=O)Cc1ccc(OC(=O)c2ccc(NC(=N)N)cc2)cc1` [Camostat mesylate, reference compound], the “inhibitory effect in TEER assay” value in assay [4] (compared to Example 11, only mid-μM concentrations partially effective, FIG. 8 and FIG. 9) was “only partially inhibitory and modestly Inhibitory”.
Take `CNC(=O)NCC1CCN(Cc2cc(Oc3ccc(N4CCN(CCC(=O)O)CC4)nc3)nc(-c3cc(Cl)cc(Cl)c3)c2)CC1` [Example 41, 3-(4-(5-((6-(3,5-Dichlorophenyl)-4-((4-((3-methylureido)methyl)piperidin-1-yl)methyl)pyridin-2-yl)oxy)pyridin-2-yl)piperazin-1-yl)propanoic acid]: the EC50 in assay [1] is 25.1 nM. In addition, the “% inhibition of hydroxyproline in lung” value in assay [2] (setting [7]) is recorded as 39* %. The “% inhibition of total TGFβ in lung” value in the assay with TGFβ in mouse lung (setting [7]) is given as 67* %. The “furin enzyme pIC50” value in assay [3] is recorded as 9.1.
With `O=C(O)CC1CCN(Cc2cc(Oc3cnc(N4CCN5CCC4C5)nc3)nc(-c3cc(Cl)cc(Cl)c3)c2)CC1` (stereo not shown) [Example 334, 2-(1-((2-((2-(1,4-Diazabicyclo[3.2.1]octan-4-yl)pyrimidin-5-yl)oxy)-6-(3,5-dichlorophenyl)pyridin-4-yl)methyl)piperidin-4-yl)acetic acid, 4 hydrochloride], the EC50 in assay [1] was 20 nM. Moreover, in assay [2] (30 mg/kg, Oral, Once daily), the “% inhibition of hydroxyproline in lung” value is 34* %. Moreover, the “% inhibition of total TGFβ in lung” value in the assay on TGFβ in mouse lung (30 mg/kg, Oral, Once daily) is 36* %. Moreover, the “furin enzyme pIC50” value in assay [3] is 8.9.
Consider `O=C(O)CC1CCN(Cc2cc(Oc3cnc(N4CCN(CCO)CC4)nc3)nc(-c3cc(Cl)cc(Cl)c3)c2)CC1` [Example 306, 2-(1-((2-(3,5-dichlorophenyl)-6-((2-(4-(2-hydroxyethyl)piperazin-1-yl)pyrimidin-5-yl)oxy)pyridin-4-yl)methyl)piperidin-4-yl)acetic acid], for which, in assay [1], the EC50 was 25.1 nM. Moreover, the “% inhibition of hydroxyproline in lung” value in assay [2] (10 mg/kg, Oral, Once daily) came to 11%. Further, in the assay with TGFβ in mouse lung (10 mg/kg, Oral, Once daily), the “% inhibition of total TGFβ in lung” value is given as 31* %. The “furin enzyme pIC50” value in assay [3] was determined as 8.9.
`CC(=O)NCC1CCN(Cc2cc(Oc3cnc(N4CCN(CCC(=O)O)CC4)nc3)nc(-c3cc(Cl)cc(Cl)c3)c2)CC1` [Example 263, 3-(4-(5-((4-((4-(acetamidomethyl)piperidin-1-yl)methyl)-6-(3,5-dichlorophenyl)pyridin-2-yl)oxy)pyrimidin-2-yl)piperazin-1-yl)propanoic acid]: the EC50 in assay [1] is 10 nM. The “% inhibition of hydroxyproline in lung” value in assay [2] (setting [8]) is reported as 60* %. Moreover, in the assay on TGFβ in mouse lung (setting [8]), the “% inhibition of total TGFβ in lung” value was 86* %. Besides, the “furin enzyme pIC50” value in assay [3] turned out to be 9.8.
Turning to `CC(=O)NCC1CCN(Cc2cc(Oc3ccc(N4CCN(CCC(=O)O)CC4)nc3)nc(-c3cc(Cl)cc(Cl)c3)c2)CC1` [Example 11, 3-(4-(5-((4-((4-(Acetamidomethyl)piperidin-1-yl)methyl)-6-(3,5-dichlorophenyl)pyridin-2-yl)oxy)pyridin-2-yl)piperazin-1-yl)propanoic acid, 4 hydrochloride], in assay [5] (1 and 3 μM), the “attenuation of rate of fluid lost” value amounted to 50% and the “attenuation of total fluid volume lost” value is 50%. For the same compound, the absorptive fluid transport result in assay [5] (compared to 'DMSO Equivalent' controls, FIG. 10 and FIG. 11) is “concentration-dependent attenuation of absorptive fluid transport”. Also, the EC50 in assay [1] is 25.1 nM. In addition, the “% inhibition of hydroxyproline in lung” value in assay [2] (setting [8]) was 67* %. In addition, in assay [6] (acute treatment, up to 3 μM), the “acute effect on RTE” value is “equivalent acute effect to Aprotinin and a stronger effect than Camostat”; the “inhibition of amiloride-sensitive RTE delta (remaining ENaC activity)” value was “inhibited amiloride-sensitive RTE delta modestly”. Also, in assay [6] (chronic overnight treatment, 3 μM, P<0.05), the “effect on the amiloride-sensitive RTE delta” value was “equivalent inhibitory effect”. Also, in assay [6] (0.1 μM), the “Delta RTE” value is given as “+181 ± 16”, the “RTE After Amil” value amounted to 697 ± 57 and the “RTE Before Amil” value is recorded as 517 ± 42. In assay [6] (0.3 μM), the “Delta RTE” value is “+122 ± 6”, the “RTE After Amil” value was 548 ± 13 and the “RTE Before Amil” value is given as 426 ± 10. In addition, in assay [6] (1 μM), the “Delta RTE” value is “+133 ± 14”, the “RTE After Amil” value is recorded as 605 ± 49 and the “RTE Before Amil” value came out at 472 ± 38. Moreover, in assay [6] (3 μM), the “Delta RTE” value is given as “+63 ± 7”, the “RTE After Amil” value worked out at 390 ± 18 and the “RTE Before Amil” value was 326 ± 16. In addition, in assay [4] (compared to 'Media only' and 'DMSO (LTA)' controls, FIG. 6, *p<0.05), the “amiloride-induced increase in RTE” value is “concentration-dependent reduction in amiloride-induced increase in RTE”. Also, the “effectiveness on RTE compared to industry standards” value in assay [4] (compared to Camostat at the same concentration and Aprotinin at ˜10 μM, FIG. 7, overlap in CRCs only at 3 μM) was “more effective”. For the same compound, in the assay on TGFβ in mouse lung (setting [8]), the “% inhibition of total TGFβ in lung” value was 69* %. In assay [3], the “furin enzyme pIC50” value was determined as 9.6.
As to `CN1CCCN(c2ncc(Oc3cc(CN4CCC(CC(=O)O)CC4)cc(-c4cc(Cl)cc(Cl)c4)n3)cn2)CC1` [Example 126, 2-(1-((2-(3,5-Dichlorophenyl)-6-((2-(4-methyl-1,4-diazepan-1-yl)pyrimidin-5-yl)oxy)pyridin-4-yl)methyl)piperidin-4-yl)acetic acid], in assay [1], the EC50 was 6.31 nM. For the same compound, in assay [2] (30 mg/kg, Oral, Once daily), the “% inhibition of hydroxyproline in lung” value is 36* %. For the same compound, the “% inhibition of total TGFβ in lung” value with TGFβ in mouse lung (30 mg/kg, Oral, Once daily) is given as 34* %. Moreover, in assay [3], the “furin enzyme pIC50” value is given as 9.
